This note sets out measurements from EP2601188B1, “HEPATITIS C VIRUS INHIBITORS” (Bristol-Myers Squibb Company, priority 2010, dated 2012).

For this experiment, the system named is HCV 1b genotype. Briefly: HCV Replicon assay (HCV-neo replicon cells, wild-type). Type of experiment: cell-based. To be noted: Hepatitis C virus, HCV 1b genotype replicon. Here is the method: An HCV Replicon assay was utilized in the present disclosure, and was prepared, conducted and validated as described in commonly owned PCT/US2006/022197 and in O'Boyle et. al. Antimicrob Agents Chemother. 2005 Apr;49(4):1346-53. Assay methods incorporating luciferase reporters have also been used as described (Apath.com).
HCV-neo replicon cells and replicon cells containing mutations in the NS5A region were used to test the currently described family of compounds. The compounds were determined to have more than 10-fold less inhibitory activity on cells containing mutations than wild-type cells. Thus, the compounds of the present disclosure can be effective in inhibiting the function of the HCV NS5A protein and are understood to be as effective in combinations as previously described in application PCT/US2006/022197 and commonly owned WO/O4014852. Further, the compounds of the present disclosure can be effective against the HCV 1b genotype. It should also be understood that the compounds of the present disclosure can inhibit multiple genotypes of HCV. […] In one embodiment, compounds of the present disclosure are inhibitory versus 1a, 1b, 2a, 2b, 3a, 4a, and 5a genotypes.

Setting [1] is: class symbols, read-out: EC50 Range.
Where [2] appears, read: values given in pM, read-out: EC50.

Each structure is given as a SMILES string. Like-named read-outs stand apart in the source and are kept apart here.

As to `COC(=O)N[C@H](C(=O)N1CCC[C@H]1c1nc[nH]c1-c1cccc(C#Cc2ccc3[nH]c([C@@H]4CCCN4C(=O)[C@H](NC(=O)OC)C(C)C)nc3c2)c1)C(C)C` (stereo in doubt) [J.281, methyl ((1S)-1-(((2S)-2-(5-(3-((2-((2S)-1-((2R)-2-((methoxycarbonyl)amino)-3-methylbutanoyl)-2-pyrrolidinyl)-1H-benzimidazol-5-yl)ethynyl)phenyl)-1H-imidazol-4-yl)-1-pyrrolidinyl)carbonyl)-2-methylpropyl)carbamate], the EC50 runs as follows: under setting [1], 4.57 to 99 nM; (values in nM, read-out: EC50) 7 nM. As to `COC(=O)N[C@H](C(=O)N1[C@@H]2C[C@@H]2C[C@H]1c1nc2c([nH]1)-c1ccc(-c3ccc4[nH]c([C@@H]5C[C@H]6C[C@H]6N5C(=O)[C@@H](NC(=O)OC)C(C)C)nc4c3)cc1CCC2)C(C)C` [J.24, methyl ((1S)-1-(((1R,3S,5R)-3-(8-(2-((1R,3S,5R)-2-((2S)-2-((methoxycarbonyl)amino)-3-methylbutanoyl)-2-azabicyclo[3.1.0]hex-3-yl)-1H-benzimidazol-5-yl)-1,4,5,6-tetrahydrobenzo[3,4]cyclohepta[1,2-d]imidazol-2-yl)-2-azabicyclo[3.1.0]hex-2-yl)carbonyl)-2-methylpropyl)carbamate], the EC50 under setting [2] is 0.01 nM.

As to `COC(=O)N[C@H](C(=O)N1CCC[C@H]1c1nc(-c2ccc(-c3ccc(-c4ccc5[nH]c([C@@H]6CCCN6C(=O)[C@@H](NC(=O)OC)C(C)C)nc5c4)cc3)cc2)c[nH]1)C(C)C` [J.26, methyl ((1S)-1-(((2S)-2-(5-(4'-(2-((2S)-1-((2S)-2-((methoxycarbonyl)amino)-3-methylbutanoyl)-2-pyrrolidinyl)-1H-imidazol-4-yl)-4-biphenylyl)-1H-benzimidazol-2-yl)-1-pyrrolidinyl)carbonyl)-2-methylpropyl)carbamate], the EC50 under setting [2] amounted to 0.005 nM. The same measure, in the same setting: in the case of `COC(=O)N[C@@H](C(=O)N1CCC[C@H]1c1nc2cc(-c3ccc(-c4ccc5c(ccc6nc([C@@H]7CCCN7C(=O)[C@H](NC(=O)OC)c7ccccc7)[nH]c65)c4)cc3)ccc2[nH]1)c1ccccc1` [J.27c, methyl ((1R)-2-((2S)-2-(7-(4-(2-((2S)-1-((2R)-2-((methoxycarbonyl)amino)-2-phenylacetyl)-2-pyrrolidinyl)-1H-benzimidazol-5-yl)phenyl)-1H-naphtho[1,2-d]imidazol-2-yl)-1-pyrrolidinyl)-2-oxo-1-phenylethyl)carbamate] it was 0.003 nM; in that of `COC(=O)N[C@H](C(=O)N1CCC[C@H]1c1nc2c(F)cc(C#Cc3ccc4c(ccc5nc([C@@H]6CCCN6C(=O)[C@@H](NC(=O)OC)C(C)C)[nH]c54)c3)cc2[nH]1)C(C)C` [J.28h, methyl ((1S)-1-(((2S)-2-(4-fluoro-6-((2-((2S)-1-((2S)-2-((methoxycarbonyl)amino)-3-methylbutanoyl)-2-pyrrolidinyl)-1H-naphtho [1,2-d]imidazol-7-yl)ethynyl)-1H-benzimidazol-2-yl)-1-pyrrolidinyl)carbonyl)-2-methylpropyl)carbamate], 0.12 nM. In the case of `COC(=O)NC(C(=O)N1[C@@H](C)CC[C@H]1c1nc2ccc3cc(C#Cc4ccc5[nH]c([C@@H]6CC[C@H](C)N6C(=O)[C@@H](NC(=O)OC)C(C)C)nc5c4)ccc3c2[nH]1)C1CCOCC1` (stereo partly drawn) [J.28i.4a, methyl ((1S)-1-(((2S,5S)-2-(5-((2-((2S,5S)-1-(((methoxycarbonyl)amino)(tetrahydro-2H-pyran-4-yl)acetyl)-5-methyl-2-pyrrolidinyl)-1H-naphtho[1,2-d]imidazol-7-yl)ethynyl)-1H-benzimidazol-2-yl)-5-methyl-1-pyrrolidinyl)carbonyl)-2-methylpropyl)carbamate], the EC50 (values in nM, read-out: EC50) worked out at 3.8 nM. Turning to `CCN(CC)[C@@H](C(=O)N1CCC[C@H]1c1nc2cc(C#Cc3cccc(-c4[nH]cnc4[C@@H]4CCCN4C(=O)[C@@H](c4ccccc4)N(CC)CC)c3)ccc2[nH]1)c1ccccc1` [J.28m, (1R)-2-((2S)-2-(5-(3-((2-((2S)-1-((2R)-2-(diethylamino)-2-phenylacetyl)-2-pyrrolidinyl)-1H-benzimidazol-5-yl)ethynyl)phenyl)-1H-imidazol-4-yl)-1-pyrrolidinyl)-N,N-diethyl-2-oxo-1-phenylethanamine], the 50% effective concentration (EC50) under setting [1] was 4.57 to 99 nM and the EC50 (values in nM, read-out: EC50) turned out to be 55.7 nM. With `COc1cccc2c(C(=O)N3CCC[C@H]3C(=O)Nc3cccc(-c4ncc(-c5ccc6[nH]c([C@@H]7CCCN7C(=O)c7nc(Cl)cc8c(OC)cccc78)nc6c5)o4)c3)nc(Cl)cc12` [J.48d, 1-((3-chloro-5-methoxy-1-isoquinolinyl)carbonyl)-N-(3-(5-(2-((2S)-1-((3-chloro-5-methoxy-1-isoquinolinyl)carbonyl)-2-pyrrolidinyl)-1H-benzimidazol-5-yl)-1,3-oxazol-2-yl)phenyl)-L-prolinamide], the EC50 is 100 to 999 nM under setting [1] and 147 nM (values in nM, read-out: EC50). On to `O=C(Nc1ccc(-c2ncc(-c3ccc4[nH]c([C@@H]5CCCN5C(=O)[C@H](O)c5ccccc5)nc4c3)o2)cc1)[C@@H]1CCCN1C(=O)[C@H](O)c1ccccc1` [J.50, 1-((2R)-2-hydroxy-2-phenylacetyl)-N-(4-(5-(2-((2S)-1-((2R)-2-hydroxy-2-phenylacetyl)-2-pyrrolidinyl)-1H-benzimidazol-5-yl)-1,3-oxazol-2-yl)phenyl)-L-prolinamide], for which the EC50 under setting [1] fell in the range of 4.57 to 99 nM. As to `COc1cccc2c(C(=O)N3CCC[C@H]3C(=O)Nc3ccc(-c4ncc(-c5ccc6[nH]c([C@@H]7CCCN7C(=O)c7nc(Cl)cc8c(OC)cccc78)nc6c5)o4)cc3)nc(Cl)cc12` [J.50c, 1-((3-chloro-5-methoxy-1-isoquinolinyl)carbonyl)-N-(4-(5-(2-((2S)-1-((3-chloro-5-methoxy-1-isoquinolinyl)carbonyl)-2-pyrrolidinyl)-1H-benzimidazol-5-yl)-1,3-oxazol-2-yl)phenyl)-L-prolinamide], the EC50 under setting [1] lay in the range of 1000 to 10000 nM and the EC50 (value given in µM, read-out: EC50) is over 10000 nM. Regarding `O=C(Nc1ccc(-c2ncc(-c3ccc4[nH]c([C@@H]5CCCN5C(=O)[C@H](O)c5ccccc5)nc4c3)o2)cc1F)[C@@H]1CCCN1C(=O)[C@H](O)c1ccccc1` [J.51, N-(2-fluoro-4-(5-(2-((2S)-1-((2R)-2-hydroxy-2-phenylacetyl)-2-pyrrolidinyl)-1H-benzimidazol-5-yl)-1,3-oxazol-2-yl)phenyl)-1-((2R)-2-hydroxy-2-phenylacetyl)-L-prolinamide], under setting [1], the EC50 fell in the range of 4.57 to 99 nM. On the same count and under the same terms, in the case of `COc1cccc2c(C(=O)N3CCC[C@H]3C(=O)Nc3ccc(-c4ncc(-c5ccc6[nH]c([C@@H]7CCCN7C(=O)c7nc(Cl)cc8c(OC)cccc78)nc6c5)o4)cc3F)nc(Cl)cc12` [J.51b, 1-((3-chloro-5-methoxy-1-isoquinolinyl)carbonyl)-N-(4-(5-(2-((2S)-1-((3-chloro-5-methoxy-1-isoquinolinyl)carbonyl)-2-pyrrolidinyl)-1H-benzimidazol-5-yl)-1,3-oxazol-2-yl)-2-fluorophenyl)-L-prolinamide] it was 100 to 999 nM; in that of `Cc1ccc(-c2ncc(-c3ccc4[nH]c([C@@H]5CCCN5C(=O)[C@@H](c5ccccc5)N(C)C)nc4c3)o2)cc1NC(=O)[C@@H]1CCCN1C(=O)CN(C)C` [J.52a, N,N-dimethylglycyl-N-(5-(5-(2-((2S)-1-((2R)-2-(dimethylamino)-2-phenylacetyl)-2-pyrrolidinyl)-1H-benzimidazol-5-yl)-1,3-oxazol-2-yl)-2-methylphenyl)-L-prolinamide], 4.57 to 99 nM; in that of `O=C(Nc1cccc(-c2ncc(-c3ccc4[nH]c([C@@H]5CCCN5C(=O)CC5CC5)nc4c3)o2)c1)[C@@H]1CCCN1C(=O)CC1CC1` [J.53, 1-(cyclopropylacetyl)-N-(3-(5-(2-((2S)-1-(cyclopropylacetyl)-2-pyrrolidinyl)-1H-benzimidazol-5-yl)-1,3-oxazol-2-yl)phenyl)-L-prolinamide], 100 to 999 nM. On the same count and under the same terms, in the case of `O=C(Nc1cccc(-c2cnc(-c3ccc4[nH]c([C@@H]5CCCN5C(=O)CC5CC5)nc4c3)o2)c1)[C@@H]1CCCN1C(=O)CC1CC1` [J.53a, 1-(cyclopropylacetyl)-N-(3-(2-(2-((2S)-1-(cyclopropylacetyl)-2-pyrrolidinyl)-1H-benzimidazol-5-yl)-1,3-oxazol-5-yl)phenyl)-L-prolinamide] it was 1000 to 10000 nM; in that of `COC(=O)N[C@@H](C(=O)N1CCC[C@H]1c1nc(C#Cc2ccc(-c3ccc4[nH]c([C@@H]5CCCN5C(=O)[C@H](NC(=O)OC)C(C)C)nc4c3)cc2)c[nH]1)C(C)C` [JB.8.1, methyl ((1R)-1-(((2S)-2-(4-((4-(2-((2S)-1-((2R)-2-((methoxycarbonyl)amino)-3-methylbutanoyl)-2-pyrrolidinyl)-1H-benzimidazol-5-yl)phenyl)ethynyl)-1H-imidazol-2-yl)-1-pyrrolidinyl)carbonyl)-2-methylpropyl)carbamate], 100 to 999 nM.

Take `O=C([C@@H](c1ccccc1)N1CCCCC1)N1CCC[C@H]1c1nc(C#Cc2ccc(-c3ccc4[nH]c([C@@H]5CCCN5C(=O)[C@@H](c5ccccc5)N5CCCCC5)nc4c3)cc2)c[nH]1` [JB.12, 2-((2S)-1-((2R)-2-phenyl-2-(1-piperidinyl)acetyl)-2-pyrrolidinyl)-5-(4-((2-((2S)-1-((2R)-2-phenyl-2-(1-piperidinyl)acetyl)-2-pyrrolidinyl)-1H-imidazol-4-yl)ethynyl)phenyl)-1H-benzimidazole]: under setting [2], the EC50 was determined as 0.0652 nM.

One may read the EC50 as the concentration at which the effect is half-maximal.
